Tests used:
HCT-116 = experiment: CCK8 proliferation inhibition, HCT-116; assay type: cell-based; details: Homo sapiens, 192 h, CCK8, 8 days after drug treatment
Description: (§1) The above normally growing cells were digested with a cell trypsinization solution, centrifuged, counted, and seeded into a 96-well plate at an appropriate cell density (2000 cells/well) at 100 µL/well. The next day after cell seeding, the compounds at different concentrations were added to the wells. Three replicate wells were set for each concentration point, and a corresponding DMSO negative control group was also set. CCK8 solution was added to each well 8 days after drug treatment. The plate was incubated at 37 °C for a period of time (OD450 of the vehicle group reached 1.0 or higher) before the absorbance at 450 nm was read using a microplate reader. The inhibition rates were calculated, and the EC50 values were determined by fitting using the GraphPad Prism 7.0 software. Table 2. EC50 values of compounds at cellular level

HCT-116-MTAP^-/- = experiment: CCK8 proliferation inhibition, HCT-116-MTAP^-/-; assay type: cell-based; details: Homo sapiens, 192 h; HCT-116-MTAP^-/- (MTAP-deficient); CCK8, 8 days after drug treatment
Description: as §1

SDMA [1] = experiment: SDMA Inhibition Assay in HCT-116 cells; assay type: cell-based; details: Homo sapiens, HCT-116, 96 hours
Description: (§2) The next day, the cells were treated with the compounds at different concentrations (with an initial concentration of 10 µM, 5-fold dilution, 9 concentration gradients). After 96 hours, the culture medium was pipetted out and the cells were washed 2 times with 100 µL of PBS. The cells were then fixed with 4% paraformaldehyde and incubated at room temperature for 20 min. The fixative solution was discarded, and the cells were washed with PBS. 150 µL of specialized blocking solution (containing 1% Triton-100) was added to each well for blocking at room temperature for 2 hours, and the plate was washed with PBS to remove excess blocking solution. […] The cells were incubated at 4 °C overnight. The next day, the cells were separately washed 2 times with 1× PBST. […] The cells were incubated at room temperature for 2 hours. The cells were washed 2 times with 1× PBST and 1 time with PBS. Fluorescence signals at 700 nm and 800 nm were separately detected using a Li-COR Odyssey two-color near-infrared laser imager. The inhibition rates were calculated, and the EC50 values were determined by fitting using the GraphPad Prism 7.0 software. Table 3. Inhibition of SDMA by test compounds

SDMA [2] = experiment: SDMA Inhibition Assay in HCT-116-MTAP^-/- cells; assay type: cell-based; details: Homo sapiens, 96 hours
Description: as §2

[3] = Mouse brain-to-blood and tumor tissue-to-blood drug concentration ratio (PC-9 tumor-bearing mice); assay type: in vivo, Balb/c-nude female mice; details: 5 mg/kg PO, PC-9 tumor-bearing mice
Description: Human lung cancer PC-9 cells were cultured in monolayer in vitro using the 1640 culture medium (HyClone) containing 10% fetal bovine serum (BI) and 1% penicillin and streptomycin (Beyotime) in an incubator at 37 °C with 5% CO2. The cells were digested with trypsin 2 to 3 times weekly for passaging. When the saturation degree of the cells was 80% to 90%, the cells were collected, counted, and inoculated. 5 × 10^6 (0.2 mL, 1:1 gel addition) PC-9 cells were subcutaneously inoculated into the right back of Balb/c-nude female mice, and the mice were used for subsequent PK and tissue distribution experiments after the mean tumor volume reached about 500 mm^3. On the day of administration, mice were weighed for actual body weight and the administration volume was calculated. In each group of 9 mice, the compound was administered by single intravenous injection or oral gavage. Whole blood samples were collected via the orbit at prescribed time points. After the blood sample collection, the samples were immediately transferred to labeled commercial sample tubes containing K2-EDTA (0.85 to 1.15 mg), followed by centrifugation (3200× g, 4 °C, 10 min) and plasma collection. The plasma was transferred to a pre-cooled centrifuge tube, frozen in dry ice, and then stored in an ultra-low temperature freezer at -60 °C or lower until the LC-MS/MS analysis was performed. Tumor and brain tissues were collected after the animals were euthanized using CO2 at prescribed time points, frozen in liquid nitrogen, and stored in an ultra-low temperature freezer at -60 °C or lower until the LC-MS/MS analysis was performed. 20 µL of the plasma sample or brain/tumor tissue homogenate was added to 80 µL of an internal standard solution (a 50 ng/mL solution of propafenone in acetonitrile). The plate was sealed using a film sealer at 165 °C, shaken on a micro oscillator (at the maximum vibration speed) for 10 min, and centrifuged at 4000 rpm for 20 min using a low-speed benchtop centrifuge; 10 µL of the supernatant was transferred and added to 90 µL of acetonitrile. The mixture was vortexed and mixed well, and then the plate was sealed using the film sealer at 165 °C. After the mixture was vortexed and mixed well, 1 µL of the supernatant was subjected to LC-MS/MS analysis.
• Brain-to-blood drug concentration ratio of mice at the same time point = drug concentration in brain tissue/drug concentration in plasma • Tumor tissue-to-blood drug concentration ratio of mice at the same time point = drug concentration in tumor tissue/drug concentration in plasma

A549 = experiment: CCK8 proliferation inhibition, A549; assay type: cell-based; details: Homo sapiens, 192 h, CCK8, 8 days after drug treatment
Description: as §1

SDMA [4] = experiment: SDMA Inhibition Assay in A549 cells; assay type: cell-based; details: Homo sapiens, A549, 96 hours
Description: as §2

| Structure (SMILES) | EC50 (HCT-116) [nM] | EC50 (HCT-116-MTAP^-/-) [nM] | EC50 (SDMA [1]) [nM] | EC50 (SDMA [2]) [nM] | Brain-to-blood drug concentration ratio ([3]; 1 h) | Drug concentration in blood ([3]; 1 h) [ng/mL] | Drug concentration in brain ([3]; 1 h) [ng/mL] | Drug concentration in tumor tissue ([3]; 1 h) [ng/mL] | Tumor tissue-to-blood drug concentration ratio ([3]; 1 h) | Brain-to-blood drug concentration ratio ([3]; 4 h) | Drug concentration in blood ([3]; 4 h) [ng/mL] | Drug concentration in brain ([3]; 4 h) [ng/mL] | Drug concentration in tumor tissue ([3]; 4 h) [ng/mL] | Tumor tissue-to-blood drug concentration ratio ([3]; 4 h) | EC50 (A549) [nM] | EC50 (SDMA [4]) [nM] |
| --- | --- | --- | --- | --- | --- | --- | --- | --- | --- | --- | --- | --- | --- | --- | --- | --- |
| Cn1ncc2c(N)nc3cnc(C(=O)N4CCN(C5CC5)CC4c4ccc5c(c4)OC(F)(F)O5)cc3c21 (racemic) [Example I-112] | > 10000 | 57 | 285 | 2.9 | 1.17 | 220 | 258 | 346 | 1.57 | 3.05 | 10.3 | 31.3 | 93 | 9.05 |  |  |
| CC1OCc2c1c(N)nc1cc(F)c(C(=O)N3CCOC[C@@H]3c3ccc4c(c3)OC(F)(F)O4)cc21 (single isomer, unassigned) [I-34 (PEAK2)] | 980 | 8.3 | 60.7 | 1.1 |  |  |  |  |  |  |  |  |  |  | 43.5 | 1.3 |
| CCN(Cc1ccc2c(c1)OC(F)(F)O2)C(=O)c1cc2c(cc1F)nc(N)c1cnn(C)c12 [Example I-6] | 389 | 2.4 |  | 2 |  |  |  |  |  |  |  |  |  |  | 27.4 | 1.9 |
| C[C@@H]1COCC(c2ccc3c(c2)OC(F)(F)O3)N1C(=O)c1ccc2nc(N)c3cnn(C)c3c2c1 (some centres unmarked) [Example I-12] | 287 | 2.7 |  | 0.5 |  |  |  |  |  |  |  |  |  |  | 8.9 | 0.3 |
| CC(C)N(Cc1ccc2c(c1)OC(F)(F)O2)C(=O)c1ccc2nc(N)c3cnn(C)c3c2c1 [Example I-14] | 1200 | 7.9 | 374 | 5.3 |  |  |  |  |  |  |  |  |  |  | 36.9 | 2 |
| Cn1ncc2c(N)nc3cc(F)c(C(=O)N(Cc4ccc5c(c4)OC(F)(F)O5)[C@@H]4CCOC4)cc3c21 [Example I-22] | 935 | 5.6 |  | 1.1 |  |  |  |  |  |  |  |  |  |  | 18.5 | 0.6 |
| Cn1ncc2c(N)nc3cc(F)c(C(=O)N(Cc4ccc5c(c4)OC(F)(F)O5)[C@H]4CCOC4)cc3c21 [Example I-25] | 1320 | 5.3 | 123 | 1.4 |  |  |  |  |  |  |  |  |  |  | 33 | 0.8 |
| COC[C@H](C)N(Cc1ccc2c(c1)OC(F)(F)O2)C(=O)c1cc2c(cc1F)nc(N)c1cnn(C)c12 [Example I-26] |  | 3.5 |  | 1.7 |  |  |  |  |  |  |  |  |  |  | 10.1 | 0.6 |
| Cn1ncc2c(N)nc3cc(F)c(C(=O)N(Cc4ccc5c(c4)OC(F)(F)O5)C[C@@H]4COCCO4)cc3c21 [Example I-27] | 510 | 4.2 | 120 | 1 |  |  |  |  |  |  |  |  |  |  | 24.4 | 0.8 |
| Cn1ncc2c(N)nc3cc(F)c(C(=O)N(Cc4ccc5c(c4)OC(F)(F)O5)C4COC4)cc3c21 [Example I-29] | 1210 | 6.1 | 292 | 2.6 |  |  |  |  |  |  |  |  |  |  | 50.6 | 2.7 |
| Cn1ncc2c(N)nc3cc(F)c(C(=O)N(Cc4ccc5c(c4)OC(F)(F)O5)C[C@H]4COCCO4)cc3c21 [Example I-30] | 411 | 6.4 | 125 | 2 |  |  |  |  |  |  |  |  |  |  | 38.5 | 1.9 |
| CC1OCc2c1c(N)nc1cc(F)c(C(=O)N3CCOC[C@@H]3c3ccc4c(c3)OC(F)(F)O4)cc21 (some centres unmarked) [Example I-34] | 1630 | 9 | 293 | 3.1 |  |  |  |  |  |  |  |  |  |  | 70.8 | 2.8 |
| CC1OCc2c1c(N)nc1cc(F)c(C(=O)N3C(c4ccc5c(c4)OC(F)(F)O5)COC[C@H]3C)cc21 (some centres unmarked) [Example I-39] |  | 2.5 |  | 0.7 |  |  |  |  |  |  |  |  |  |  | 18.5 | 0.9 |
| Cn1cnc(CN(Cc2ccc3c(c2)OC(F)(F)O3)C(=O)c2cc3c(cc2F)nc(N)c2cnn(C)c23)n1 [Example I-41] |  | 1.6 |  | 0.7 |  |  |  |  |  |  |  |  |  |  | 16.8 | 1.1 |
| Cn1ncc2c(N)nc3cc(C#N)c(C(=O)N4CCOC[C@@H]4c4ccc5c(c4)OC(F)(F)O5)cc3c21 [Example I-53] | 210 | 5.3 | 68.7 | 0.7 |  |  |  |  |  |  |  |  |  |  | 15.5 | 1 |
| Cn1ncc2c(N)nc3cc(C#N)c(C(=O)N(Cc4ccc5c(c4)OC(F)(F)O5)C4CC4)cc3c21 [Example I-54] | 672 | 4.2 | 61.7 | 1.8 |  |  |  |  |  |  |  |  |  |  | 28.9 | 1.3 |
| Cn1ncc2c(N)nc3cc(F)c(C(=O)N4CCCC[C@@H]4c4ccc5c(c4)OC(F)(F)O5)cc3c21 [Example I-80] | 201 | 4.7 | 65 | 0.9 |  |  |  |  |  |  |  |  |  |  | 12.8 | 2.2 |
| Cn1ncc2c(N)nc3cnc(C(=O)N4CCCC[C@@H]4c4ccc5c(c4)OC(F)(F)O5)cc3c21 [Example I-111] | 2170 | 15 | 254 | 1 |  |  |  |  |  |  |  |  |  |  | 77 | 1.6 |

Reference: patent publication EP4700025A1, “AMIDE COMPOUND, PHARMACEUTICAL COMPOSITION COMPRISING SAME, AND USE THEREOF” (Suzhou Genhouse Bio Co., Ltd., priority 2023, dated 2024)
